# Target: T1, F508delCFTR cell surface expression in CFBE41o-F508delCFTR-HRP cells (Homo sapiens, UniProt P13569, DEL508-508)
# T1 construct: fused on or other part: Horseradish peroxidase (HRP) reporter inserted in the fourth exofacial (extracellular) loop of CFTR; expression is doxycycline-inducible
# Experiment: Cell Surface Expression-Horse Radish Peroxidase (CSE-HRP) Assay
# Assay type: cell-based
# Conditions: for EC50: CFBE41o-F508delCFTR-HRP cells, 18-24 hours at 33° C., 8-point curve, highest concentration 20 μM; for Maximum % activity (%): maximum at any tested concentration, normalized to on-plate positive control (3 μM)
# How it was run: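 CFBE41o- cells with HRP-tagged F508delCFTR, expression induced by 0.5 μg/mL doxycycline for 72 h at 37 °C, then compound for 18-24 h at 33 °C (8-point, 3-fold, top 20 μM). Surface HRP measured by luminol luminescence; % activity normalised to 3 μM positive-control corrector; EC50 from variable-slope sigmoidal fit, three replicate plates.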
# T1 sequence (P13569 with tags, fused parts or gaps DEL508-508 limits assumed): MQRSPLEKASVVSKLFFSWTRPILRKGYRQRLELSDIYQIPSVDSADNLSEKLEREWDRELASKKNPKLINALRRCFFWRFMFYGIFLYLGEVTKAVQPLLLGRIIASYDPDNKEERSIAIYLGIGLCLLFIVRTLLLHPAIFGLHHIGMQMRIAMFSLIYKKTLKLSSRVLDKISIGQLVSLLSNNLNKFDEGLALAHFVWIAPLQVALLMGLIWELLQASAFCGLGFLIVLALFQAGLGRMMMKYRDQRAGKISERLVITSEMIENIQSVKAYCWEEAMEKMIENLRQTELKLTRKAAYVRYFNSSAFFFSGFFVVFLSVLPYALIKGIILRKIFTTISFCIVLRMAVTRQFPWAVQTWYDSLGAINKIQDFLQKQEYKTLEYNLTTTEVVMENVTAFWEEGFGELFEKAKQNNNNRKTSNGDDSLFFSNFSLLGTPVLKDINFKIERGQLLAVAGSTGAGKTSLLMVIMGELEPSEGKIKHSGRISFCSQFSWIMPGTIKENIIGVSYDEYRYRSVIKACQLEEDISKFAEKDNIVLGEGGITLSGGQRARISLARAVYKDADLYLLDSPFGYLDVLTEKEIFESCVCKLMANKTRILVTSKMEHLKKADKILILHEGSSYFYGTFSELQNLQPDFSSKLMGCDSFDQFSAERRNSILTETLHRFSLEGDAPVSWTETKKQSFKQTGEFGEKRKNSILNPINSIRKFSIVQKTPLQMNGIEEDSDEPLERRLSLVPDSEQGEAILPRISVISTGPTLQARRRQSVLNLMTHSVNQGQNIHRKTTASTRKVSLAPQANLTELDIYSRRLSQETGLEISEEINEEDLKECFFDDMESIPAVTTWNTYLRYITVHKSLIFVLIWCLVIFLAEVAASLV
# T1 sequence (P13569 919-1480 limits assumed, stated change not applied): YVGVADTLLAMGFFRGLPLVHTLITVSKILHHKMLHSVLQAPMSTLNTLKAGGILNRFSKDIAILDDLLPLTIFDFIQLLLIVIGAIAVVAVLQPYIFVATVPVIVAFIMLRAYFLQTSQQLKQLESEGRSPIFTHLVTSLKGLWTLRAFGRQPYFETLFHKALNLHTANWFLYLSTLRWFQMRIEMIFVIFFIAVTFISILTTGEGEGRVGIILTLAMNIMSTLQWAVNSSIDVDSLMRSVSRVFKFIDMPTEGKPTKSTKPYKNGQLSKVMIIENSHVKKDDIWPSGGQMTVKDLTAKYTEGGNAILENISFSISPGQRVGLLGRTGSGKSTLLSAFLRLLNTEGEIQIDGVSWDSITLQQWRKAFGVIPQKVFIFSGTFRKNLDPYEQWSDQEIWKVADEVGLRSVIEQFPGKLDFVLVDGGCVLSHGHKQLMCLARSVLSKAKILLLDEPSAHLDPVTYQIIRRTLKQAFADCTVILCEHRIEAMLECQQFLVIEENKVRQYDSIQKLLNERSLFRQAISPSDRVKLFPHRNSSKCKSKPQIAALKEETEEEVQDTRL
SMILES,EC50,Maximum % activity (%)
"C[C@]1(C(=O)N[C@@H]2C[C@H]([C@H]3CC[C@H](C(=O)N(CCO)CCO)CC3)Oc3cc(OC(F)(F)F)ccc32)COc2cc3c(cc21)OC(F)(F)O3 [Example 254, (7R)—N-[(2R,4R)-2-{trans-4-[bis(2-hydroxyethyl)carbamoyl]cyclohexyl}-7-(trifluoromethoxy)-3,4-dihydro-2H-1-benzopyran-4-yl]-2,2-difluoro-7-methyl-6,7-dihydro-2H-furo[2,3-f][1,3]benzodioxole-7-carboxamide]",80 nM,136%
"C[C@]1(C(=O)N[C@@H]2C[C@H]([C@H]3CC[C@H](C(=O)N4C[C@@H](O)[C@H](O)C4)CC3)Oc3cc(OC(F)(F)F)ccc32)COc2cc3c(cc21)OC(F)(F)O3 [Example 255, (7R)—N-[(2R,4R)-2-{trans-4-[(3R,4R)-3,4-dihydroxypyrrolidine-1-carbonyl]cyclohexyl}-7-(trifluoromethoxy)-3,4-dihydro-2H-1-benzopyran-4-yl]-2,2-difluoro-7-methyl-6,7-dihydro-2H-furo[2,3-f][1,3]benzodioxole-7-carboxamide]",90 nM,158%
"C[C@]1(C(=O)N[C@@H]2C[C@H]([C@H]3CC[C@H](C(=O)N4CCOCC4CO)CC3)Oc3cc(OC(F)(F)F)ccc32)COc2cc3c(cc21)OC(F)(F)O3 (stereo partly drawn) [Example 257, (7R)-2,2-difluoro-N-[(2R,4R)-2-{trans-4-[3-(hydroxymethyl)morpholine-4-carbonyl]cyclohexyl}-7-(trifluoromethoxy)-3,4-dihydro-2H-1-benzopyran-4-yl]-7-methyl-6,7-dihydro-2H-furo[2,3-f][1,3]benzodioxole-7-carboxamide]",70 nM,170%
"CC(O)CNC(=O)[C@H]1CC[C@H]([C@H]2C[C@@H](NC(=O)[C@@]3(C)COc4cc5c(cc43)OC(F)(F)O5)c3ccc(OC(F)(F)F)cc3O2)CC1 (stereo partly drawn) [Example 258, (7R)-2,2-difluoro-N-[(2R,4R)-2-{trans-4-[(2-hydroxypropyl)carbamoyl]cyclohexyl}-7-(trifluoromethoxy)-3,4-dihydro-2H-1-benzopyran-4-yl]-7-methyl-6,7-dihydro-2H-furo[2,3-f][1,3]benzodioxole-7-carboxamide]",110 nM,174%
"CC(CO)NC(=O)[C@H]1CC[C@H]([C@H]2C[C@@H](NC(=O)[C@@]3(C)COc4cc5c(cc43)OC(F)(F)O5)c3ccc(OC(F)(F)F)cc3O2)CC1 (stereo partly drawn) [Example 259, (7R)-2,2-difluoro-N-[(2R,4R)-2-{trans-4-[(1-hydroxypropan-2-yl)carbamoyl]cyclohexyl}-7-(trifluoromethoxy)-3,4-dihydro-2H-1-benzopyran-4-yl]-7-methyl-6,7-dihydro-2H-furo[2,3-f][1,3]benzodioxole-7-carboxamide]",80 nM,163%
"C[C@]1(C(=O)N[C@@H]2C[C@H]([C@H]3CC[C@H](C(=O)Nc4ccccc4O)CC3)Oc3cc(OC(F)(F)F)ccc32)COc2cc3c(cc21)OC(F)(F)O3 [Example 262, (7R)-2,2-difluoro-N-[(2R,4R)-2-{trans-4-[(2-hydroxyphenyl)carbamoyl]cyclohexyl}-7-(trifluoromethoxy)-3,4-dihydro-2H-1-benzopyran-4-yl]-7-methyl-6,7-dihydro-2H-furo[2,3-f][1,3]benzodioxole-7-carboxamide]",90 nM,184%
"C[C@]1(C(=O)N[C@@H]2C[C@H]([C@H]3CC[C@H](C(=O)N(CCO)Cc4ccccc4)CC3)Oc3cc(OC(F)(F)F)ccc32)COc2cc3c(cc21)OC(F)(F)O3 [Example 264, (7R)—N-[(2R,4R)-2-{trans-4-[benzyl(2-hydroxyethyl)carbamoyl]cyclohexyl}-7-(trifluoromethoxy)-3,4-dihydro-2H-1-benzopyran-4-yl]-2,2-difluoro-7-methyl-6,7-dihydro-2H-furo[2,3-f][1,3]benzodioxole-7-carboxamide]",60 nM,186%
"C[C@]1(C(=O)N[C@@H]2C[C@H]([C@H]3CC[C@H](C(=O)N4CCC(O)CC4)CC3)Oc3cc(OC(F)(F)F)ccc32)COc2cc3c(cc21)OC(F)(F)O3 [Example 265, (7R)-2,2-difluoro-N-[(2R,4R)-2-[trans-4-(4-hydroxypiperidine-1-carbonyl)cyclohexyl]-7-(trifluoromethoxy)-3,4-dihydro-2H-1-benzopyran-4-yl]-7-methyl-6,7-dihydro-2H-furo[2,3-f][1,3]benzodioxole-7-carboxamide]",80 nM,173%

# Further lines, results first:
EC50,Maximum % activity (%),SMILES
110 nM,160%,"C[C@]1(C(=O)N[C@@H]2C[C@H]([C@H]3CC[C@H](C(=O)N4CCN(CCO)CC4)CC3)Oc3cc(OC(F)(F)F)ccc32)COc2cc3c(cc21)OC(F)(F)O3 [Example 266, (7R)-2,2-difluoro-N-[(2R,4R)-2-{trans-4-[4-(2-hydroxyethyl)piperazine-1-carbonyl]cyclohexyl}-7-(trifluoromethoxy)-3,4-dihydro-2H-1-benzopyran-4-yl]-7-methyl-6,7-dihydro-2H-furo[2,3-f][1,3]benzodioxole-7-carboxamide]"
90 nM,166%,"CC(C)(O)CNC(=O)[C@H]1CC[C@H]([C@H]2C[C@@H](NC(=O)[C@@]3(C)COc4cc5c(cc43)OC(F)(F)O5)c3ccc(OC(F)(F)F)cc3O2)CC1 [Example 267, (7R)-2,2-difluoro-N-[(2R,4R)-2-{trans-4-[(2-hydroxy-2-methylpropyl)carbamoyl]cyclohexyl}-7-(trifluoromethoxy)-3,4-dihydro-2H-1-benzopyran-4-yl]-7-methyl-6,7-dihydro-2H-furo[2,3-f][1,3]benzodioxole-7-carboxamide]"
120 nM,186%,"CC(C)(CO)NC(=O)[C@H]1CC[C@H]([C@H]2C[C@@H](NC(=O)[C@@]3(C)COc4cc5c(cc43)OC(F)(F)O5)c3ccc(OC(F)(F)F)cc3O2)CC1 [Example 268, (7R)-2,2-difluoro-N-[(2R,4R)-2-{trans-4-[(1-hydroxy-2-methylpropan-2-yl)carbamoyl]cyclohexyl}-7-(trifluoromethoxy)-3,4-dihydro-2H-1-benzopyran-4-yl]-7-methyl-6,7-dihydro-2H-furo[2,3-f][1,3]benzodioxole-7-carboxamide]"
50 nM,192%,"C[C@]1(C(=O)N[C@@H]2C[C@H]([C@H]3CC[C@H](C(=O)NC(CO)c4ccccc4)CC3)Oc3cc(OC(F)(F)F)ccc32)COc2cc3c(cc21)OC(F)(F)O3 (stereo partly drawn) [Example 269, (7R)-2,2-difluoro-N-[(2R,4R)-2-{trans-4-[(2-hydroxy-1-phenylethyl)carbamoyl]cyclohexyl}-7-(trifluoromethoxy)-3,4-dihydro-2H-1-benzopyran-4-yl]-7-methyl-6,7-dihydro-2H-furo[2,3-f][1,3]benzodioxole-7-carboxamide]"
180 nM,229%,"C[C@]1(C(=O)N[C@@H]2C[C@H]([C@H]3CC[C@H](C(=O)N4CCC(F)(F)CC4)CC3)Oc3cc(OC(F)(F)F)ccc32)COc2cc3c(cc21)OC(F)(F)O3 [Example 270, (7R)—N-[(2R,4R)-2-[trans-4-(4,4-difluoropiperidine-1-carbonyl)cyclohexyl]-7-(trifluoromethoxy)-3,4-dihydro-2H-1-benzopyran-4-yl]-2,2-difluoro-7-methyl-6,7-dihydro-2H-furo[2,3-f][1,3]benzodioxole-7-carboxamide]"
60 nM,172%,"C[C@]1(C(=O)N[C@@H]2C[C@H]([C@H]3CC[C@H](C(=O)N4CCOCC4)CC3)Oc3cc(OC(F)(F)F)ccc32)COc2cc3c(cc21)OC(F)(F)O3 [Example 271, (7R)-2,2-difluoro-7-methyl-N-[(2R,4R)-2-[trans-4-(morpholine-4-carbonyl)cyclohexyl]-7-(trifluoromethoxy)-3,4-dihydro-2H-1-benzopyran-4-yl]-6,7-dihydro-2H-furo[2,3-f][1,3]benzodioxole-7-carboxamide]"
850 nM,99%,"COc1ccc2c(c1)O[C@@H](COC[C@H](O)CO)C[C@H]2NC(=O)[C@@]1(C)COc2cc3c(cc21)OC(F)(F)O3 [Example 274, (7R)—N-[(2R,4R)-2-{[(2R)-2,3-dihydroxypropoxy]methyl}-7-methoxy-3,4-dihydro-2H-1-benzopyran-4-yl]-2,2-difluoro-7-methyl-6,7-dihydro-2H-furo[2,3-f][1,3]benzodioxole-7-carboxamide]"
> 20000 nM,7%,"COc1ccc2c(c1)O[C@H](COC[C@H](O)CO)C[C@@H]2NC(=O)[C@@]1(C)COc2cc3c(cc21)OC(F)(F)O3 [Example 275, (7R)—N-[(2S,4S)-2-{[(2R)-2,3-dihydroxypropoxy]methyl}-7-methoxy-3,4-dihydro-2H-1-benzopyran-4-yl]-2,2-difluoro-7-methyl-6,7-dihydro-2H-furo[2,3-f][1,3]benzodioxole-7-carboxamide]"
700 nM,117%,"COc1ccc2c(c1)O[C@@H](COCc1ccccc1)C[C@H]2NC(=O)[C@@]1(C)COc2cc3c(cc21)OC(F)(F)O3 [Example 276, (7R)—N-{(2R,4R)-2-[(benzyloxy)methyl]-7-methoxy-3,4-dihydro-2H-1-benzopyran-4-yl}-2,2-difluoro-7-methyl-6,7-dihydro-2H-furo[2,3-f][1,3]benzodioxole-7-carboxamide]"
660 nM,110%,"COc1ccc2c(c1)O[C@@H](CO)C[C@H]2NC(=O)[C@@]1(C)COc2cc3c(cc21)OC(F)(F)O3 [Example 277, (7R)-2,2-difluoro-N-[(2R,4R)-2-(hydroxymethyl)-7-methoxy-3,4-dihydro-2H-1-benzopyran-4-yl]-7-methyl-6,7-dihydro-2H-furo[2,3-f][1,3]benzodioxole-7-carboxamide]"

# — patent publication US9840513B2 (AbbVie S.à.r.l., priority 2015, dated 2017)
